Reference: paper PMC9496155, “Amaryllidaceae Alkaloids Decrease the Proliferation, Invasion, and Secretion of Clinically Relevant Cytokines by Cultured Human Colon Cancer Cells” (Biomolecules, 2022)
pIC50: −log10 of the molar value. Like-named read-outs stand apart in the source and are kept apart here.

Tests used:
DLD-1 = experiment: MTT viability assay, DLD-1; format: cell-based, human; conditions: TP53 mutant, mean of six replicates of one experiment, read-out: IC50 Cancer Cell Lines (C) DLD-1
Protocol: (§1) HCT-116 (CCL-247), LoVo (CCL-229), DLD-1 (CCL-221), HT-29 (HTB-38) and CoN (CCD-841) human CRC cells were obtained from the ATCC (Manassas, VA, USA). HCT-116 cells were cultured in Dulbecco’s Modified Eagle’s Medium (DMEM; Corning Cellgro, Corning, NY, USA) for the invasion assays or RPMI-1640 medium (Lonza, Westburg, The Netherlands) for all other assays. The LoVo, DLD-1, and HT-29 cell lines were grown in RPMI-1640 for all experiments. Media were supplemented with 10% fetal bovine serum (FBS; Gibco, Waltham, MA, USA or Greiner Bio-One, Vilvoorde, Belgium), 100 U/mL penicillin, and 100 µg/mL streptomycin (Gibco, Waltham, MA). Cells were grown at 37 °C and 5% CO2 in a humidified atmosphere. The CoN cells were cultured in Eagle’s Minimum Essential Medium (Lonza, Westburg, The Netherlands) supplemented with 10% FBS (South America origin, Greiner Bio-One, Vilvoorde, Belgium). HCT-116 p53^-/- cells were obtained from Denis L.J. LaFontaine, Université Libre de Bruxelles, Brussels, Belgium.
(§2) Effects of compounds on viability were assessed by means of 3-(4,5-dimethylthiazol-2-yl)-2,5-diphenyltetrazolium bromide (MTT; Sigma-Aldrich, Diegem, Belgium) colorimetric assay as previously reported. Briefly, cells were seeded in flat-bottom 96-well plates at the appropriate cell density 24 h prior to the exposure or not to the compound of interest. Each compound was first solubilized in dimethylsulfoxide (DMSO) at 10^−2 M concentration and further diluted in a serial manner in the culture medium. Nine concentrations ranging from 10 nM to 100 µM were tested in sextuplicate within the assay. Evaluation of the cell viability was conducted after 72 h of exposure to the compound by means of MTT assay.

HT-29 = experiment: MTT viability assay, HT-29; format: cell-based, human; conditions: TP53 mutant, mean of six replicates of one experiment, read-out: IC50 Cancer Cell Lines (C) HT-29
Protocol: as §1, §2

HCT-116^-/- = experiment: MTT viability assay, HCT-116-/- (p53-null); format: cell-based, human; conditions: mean of six replicates of one experiment, read-out: IC50 Cancer Cell Lines (C) HCT-116-/-
Protocol: as §1, §2

LoVo = experiment: MTT viability assay, LoVo; format: cell-based, human; conditions: 72 h of exposure, TP53 wild type, mean of six replicates of one experiment, read-out: IC50 Cancer Cell Lines (C) LoVo
Protocol: as §1, §2

[1] = system: Cancer Cell Lines (LoVo, HCT-116^+/+, HCT-116^-/-, HT-29, DLD-1); experiment: MTT viability assay, mean over the five colon cancer cell lines and ratio to CoN; format: cell-based, human; conditions: for Ratio N/C: IC50 CoN / mean IC50 cancer cells
Protocol: as §1, §2

CoN = experiment: MTT viability assay, CoN normal colon epithelial cell line; format: cell-based, human; conditions: 72 h of exposure, mean of six replicates of one experiment, read-out: IC50 Normal Cell Line (N) CoN
Protocol: as §1, §2

HCT-116^+/+ = experiment: MTT viability assay, HCT-116+/+; format: cell-based, human; conditions: functional p53, mean of six replicates of one experiment, read-out: IC50 Cancer Cell Lines (C) HCT-116+/+
Protocol: as §1, §2

MMP-1, -2, -7, -9, -13 = experiment: Luminex assay of MMP secretion in HCT-116 and LoVo cell supernatants; format: cell-based, human; conditions: 6 µM; 24 h; both cell lines (HCT-116, LoVo)
Excerpt: We ordered a customized Luminex® assay to quantify 15 targets at once from Biotechne (reference LXSAHM-15; R&D Systems, Abingdon, U.K.). The 15 targets were chosen on the basis of the literature as follows: the relevant metalloproteinases MMP-1, -2, -7, -9, -13 [49] and the cytokines associated with dismal prognosis or shorter disease-free survival period: C-C motif chemokine ligand (CCL) -4, CCL-22, Flt-3 ligand, IL-1β, IL-2, IL-6, IL-8, interferon gamma (IFNγ), vascular endothelial growth factor (VEGF), and pentraxin-3 [50]. Samples were prepared as follows: HCT-116 or LoVo cells were seeded in 6-well plates and allowed to adhere and grow until they reached 70% confluency. The culture medium was replaced by 1.5 mL of culture medium containing only 0.5% of FBS with or without the compounds to be tested (NAR at 80 nM, LYC at 6 µM, and HAE at 6 µM). After 24 h of treatment, supernatants were collected, aliquoted, and kept frozen at −80 °C. Three independent series of samples were prepared. […] We thus decided to concentrate several aliquots of our supernatant samples by centrifugation of 500 µL of supernatant with Amicon Ultra 0.5 mL filters characterized by a 3 kDa cut-off (UFC500324; Millipore, Merck, Hoeilaart, Belgium) leading to a final volume of 150 µL (3.3 times concentrated). The Luminex® assay was conducted according to manufacturer’s recommendations. Data were collected on a Bioplex-200 (Bio-Rad, Temse, Belgium).

[2] = system: subpanel of CRC cell lines; conditions: NCI DTD 60 cell line screen; cited from earlier work
[3] = Homo sapiens, HCT-116, 72 h of exposure

What does the source list for N.N.[Cl][Pt][Cl] [Cisplatin, cisplatin, reference compound]?
pIC50 (DLD-1; 72 h of exposure): 4.83; pIC50 (HT-29; 72 h of exposure): 4.66; pIC50 (HCT-116^-/-; 72 h of exposure): 4.76; pIC50 (LoVo): 5.08; Ratio N/C [1]: 5; times less toxic toward non-cancerous cells ([1]; mean IC50s of cancer cell lines vs CoN cell line): 5 times; pIC50 ([1]; mean over five cancer cell lines, MTT, 72 h, read-out: Mean IC50 Cancer Cells): 4.87; pIC50 (CoN): 4.17; pIC50 (HCT-116^+/+; 72 h of exposure): 5.35

For CO[C@@H]1C=C[C@@]23c4cc5c(cc4CN(C[C@@H]2O)[C@H]3C1)OCO5 [HAE, haemanthamine], which “secretion of MMP-1, -2, and -7” value (MMP-1, -2, -7, -9, -13) is on record?
Its value is “markedly decrease”.

What about the pIC50 (DLD-1; Homo sapiens, DLD-1, 72 h of exposure) of the same compound?
Its pIC50 is 5.62.

What about the pIC50 (HT-29; Homo sapiens, HT-29, 72 h of exposure) of the same compound?
Its pIC50 is 5.60.

What about the pIC50 (HCT-116^-/-; [3]) of the same compound?
The pIC50 was 5.66.

And the pIC50 (LoVo; Homo sapiens, LoVo)?
The pIC50 was 5.34.

What about the pIC50 ([1]; Homo sapiens, after 72 h of exposure, regardless of TP53 status, read-out: IC50s against all cancer cell lines) of the same compound?
Its pIC50 is roughly 5.52.

What about the pIC50 ([1]; Homo sapiens, mean over five cancer cell lines, MTT, 72 h, read-out: Mean IC50 Cancer Cells) of the same compound?
Its pIC50 is 5.57.

And the “Ratio N/C” value [1]?
The value was 31.

What about the pIC50 (CoN; Homo sapiens, Epithelial cell) of the same compound?
Its pIC50 is 4.07.

And the pIC50 (HCT-116^+/+; [3])?
Its pIC50 is 5.72.

And the GI50 [2]?
Its GI50 is 15.8 µM.
